Assay: recombinant UMI read abundance after kanamycin selection (control-corrected) (log10(CPM+1)); higher = more efficient recombination; extreme values may be limits of the assay; sequences stand for … in AGTGCAGAGAAAATCGGCCAGTTTTCTCTGCCTGCAGTCCGCATGCCGTGGGACCCCTTGGGTTCTAACCTGTTGCCTAGATTTATGCAGCGGACTGCCTTTCTCCCAAAGTGATAAACCGG…AGGTTGGTTTCACT; site = the 11-nt donor
Method: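 Pooled E. coli donor-specificity screen for the IS621 bridge recombinase. Each library member carries a reprogrammed 11-nt donor and a full-length LE bridge RNA expressed in cis from the natural promoter, with a paired donor-binding loop (8-nt LDG + 4-nt RDG) and a target-binding loop fixed to T5. It is co-electroporated with a T5 target plasmid; recombinase is induced with 0.07 mM IPTG and recombinants are selected on kanamycin. UMIs are counted as CPM, averaged over two biological replicates and corrected by the unselected control. Molecule = full bridge RNA written as DNA, built from the T5 scaffold: LDG = donor specificity nt 1-8, RDG = reverse complement of nt 8-11.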
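Also: IS621 bridge recombinase in Escherichia coli cells against a fixed T5 target plasmid.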

Row | Sequence | recombinant UMI read abundance (log10)
1 | AACCGTCCATGGACCGGTTTTCCCGGTAATCCGTATTTGAT (site AACCGACCTAT) | 0
2 | AACCGTCCATGGACCGGTTTTCCCGGTAATCCGTATTTGAT (site AACCGCCCTAT) | 0.00356
3 | AACCGTCCATGGACCGGTTTTCCCGGTAATCCGTATTTGAT (site AACCGGCCTAT) | 0.00769
4 | AACCGTCCATGGACCGGTTTTCCCGGTAATCCGTATTTGAT (site AACCGTACTAT) | 0.0096
5 | AACCGTCCATGGACCGGTTTTCCCGGTAATCCGTATTTGAT (site AACCGTCCTAA) | 0.0165
6 | AACCGTCCATGGACCGGTTTTCCCGGTAATCCGTATTTGAT (site AACCGTCCTAC) | 0.0101
7 | AACCGTCCATGGACCGGTTTTCCCGGTAATCCGTATTTGAT (site AACCGTCCTAG) | 0
8 | AACCGTCCATGGACCGGTTTTCCCGGTAATCCGTATTTGAT (site AACCGTCCTAT) | 0.252
9 | AACCGTCCATGGACCGGTTTTCCCGGTAATCCGTATTTGAT (site AACCGTCCTCT) | 0.00582
10 | AACCGTCCATGGACCGGTTTTCCCGGTAATCCGTATTTGAT (site AACCGTCCTGT) | 0
11 | AACCGTCCATGGACCGGTTTTCCCGGTAATCCGTATTTGAT (site AACCGTCCTTT) | 0.0201
12 | AACCGTCCATGGACCGGTTTTCCCGGTAATCCGTATTTGAT (site AACCGTGCTAT) | 0.0154
13 | AACCGTCCATGGACCGGTTTTCCCGGTAATCCGTATTTGAT (site AACCGTTCTAT) | 0.00303
14 | AACCGTCCATGGACCGGTTTTCCCGGTAATCCGTATTTGAT (site AACCTTCCTAT) | 0.0119
15 | AACCGTCCATGGACCGGTTTTCCCGGTAATCCGTATTTGAT (site AACGGTCCTAT) | 0.00654
16 | AACCGTCCATGGACCGGTTTTCCCGGTAATCCGTATTTGAT (site AACTGTCCTAT) | 0.00892
17 | AACCGTCCATGGACCGGTTTTCCCGGTAATCCGTATTTGAT (site AAGCGTCCTAT) | 0
18 | AACCGTCCATGGACCGGTTTTCCCGGTAATCCGTATTTGAT (site AATCGTCCTAT) | 0.0138
19 | AACCGTCCATGGACCGGTTTTCCCGGTAATCCGTATTTGAT (site ACCCGTCCTAT) | 0
20 | AACCGTCCATGGACCGGTTTTCCCGGTAATCCGTATTTGAT (site AGCCGTCCTAT) | 0.0654
21 | AACCGTCCATGGACCGGTTTTCCCGGTAATCCGTATTTGAT (site ATCCGTCCTAT) | 0.00558
22 | AACCGTCCATGGACCGGTTTTCCCGGTAATCCGTATTTGAT (site CACCGTCCTAT) | 0.00991
23 | AACCGTCCATGGACCGGTTTTCCCGGTAATCCGTATTTGAT (site GACCGTCCTAT) | 0.00938
24 | AACCGTCCATGGACCGGTTTTCCCGGTAATCCGTATTTGAT (site TACCGTCCTAT) | 0.0405

Row | Sequence | recombinant UMI read abundance (log10)
25 | AACCGTGCATGGACCGGTTTTCCCGGTAATCCGTATTTGAT (site AACCGTACTAT) | 0.902
26 | AACCGTGCATGGACCGGTTTTCCCGGTAATCCGTATTTGAT (site AACCGTCCTAT) | 0.0261
27 | AACCGTGCATGGACCGGTTTTCCCGGTAATCCGTATTTGAT (site AACCGTGCTAT) | 1.37
28 | AACCGTGCATGGACCGGTTTTCCCGGTAATCCGTATTTGAT (site AACCGTTCTAT) | 0
29 | AACCTAGCATGGACCGGTTTTCCCGGTAATCCGTATTTGTT (site AACCTAGCTAA) | 0.0287
30 | AACCTAGCATGGACCGGTTTTCCCGGTAATCCGTATTTGTT (site ACCCTAGCTAA) | 0.542
31 | AACCTAGCATGGACCGGTTTTCCCGGTAATCCGTATTTGTT (site AGCCTAGCTAA) | 0.024
32 | AACCTAGCATGGACCGGTTTTCCCGGTAATCCGTATTTGTT (site ATCCTAGCTAA) | 0.0182
33 | AACCTCCCATGGACCGGTTTTCCCGGTAATCCGTATTTGGC (site AACCTCCCTGC) | 0
34 | AACCTTCCATGGACCGGTTTTCCCGGTAATCCGTATTTGCC (site AACCTTCCTGG) | 0
35 | AACGAAACATGGACCGGTTTTCCCGGTAATCCGTATTTGCC (site AACGAAACTGG) | 2.4
36 | AACGGGGCATGGACCGGTTTTCCCGGTAATCCGTATTTGCG (site AACGGGGCTCG) | 1.19
37 | AACGGTACATGGACCGGTTTTCCCGGTAATCCGTATTTGGG (site AACGGTACTCC) | 0.0069
38 | AACGTGTCATGGACCGGTTTTCCCGGTAATCCGTATTTGAC (site AAAGTGTCTGT) | 0
39 | AACGTGTCATGGACCGGTTTTCCCGGTAATCCGTATTTGAC (site AACGTGTCTGT) | 0
40 | AACGTGTCATGGACCGGTTTTCCCGGTAATCCGTATTTGAC (site AAGGTGTCTGT) | 0
41 | AACGTGTCATGGACCGGTTTTCCCGGTAATCCGTATTTGAC (site AATGTGTCTGT) | 0
42 | AACTCAGCATGGACCGGTTTTCCCGGTAATCCGTATTTGTA (site AACTCAGCTTA) | 1.62
43 | AACTCCGCATGGACCGGTTTTCCCGGTAATCCGTATTTGAC (site AACTCCGCTGT) | 1.92
44 | AACTCCTCATGGACCGGTTTTCCCGGTAATCCGTATTTGCC (site AACTCCTCTGG) | 1.8
45 | AACTCCTCATGGACCGGTTTTCCCGGTAATCCGTATTTGCC (site CACTCCTCTGG) | 2.43
46 | AACTCCTCATGGACCGGTTTTCCCGGTAATCCGTATTTGCC (site GACTCCTCTGG) | 1.42
47 | AACTCCTCATGGACCGGTTTTCCCGGTAATCCGTATTTGCC (site TACTCCTCTGG) | 2.61
48 | AACTCTACATGGACCGGTTTTCCCGGTAATCCGTATTTGTG (site AACTCTACTCA) | 0.146

Row | Sequence | recombinant UMI read abundance (log10)
49 | AACTGCACATGGACCGGTTTTCCCGGTAATCCGTATTTGCT (site AACTGCACTAG) | 1.96
50 | AACTTGCCATGGACCGGTTTTCCCGGTAATCCGTATTTGGC (site AACTTGCCTGC) | 0
51 | AACTTGGCATGGACCGGTTTTCCCGGTAATCCGTATTTGGA (site AACTTGGCTTC) | 0.368
52 | AACTTGGCATGGACCGGTTTTCCCGGTAATCCGTATTTGGA (site CACTTGGCTTC) | 0.467
53 | AACTTGGCATGGACCGGTTTTCCCGGTAATCCGTATTTGGA (site GACTTGGCTTC) | 0.439
54 | AACTTGGCATGGACCGGTTTTCCCGGTAATCCGTATTTGGA (site TACTTGGCTTC) | 0.393
55 | AAGAACGCATGGACCGGTTTTCCCGGTAATCCGTATTTGGG (site AAGAACGCTCC) | 0.564
56 | AAGAACGCATGGACCGGTTTTCCCGGTAATCCGTATTTGGG (site AAGCACGCTCC) | 0.0226
57 | AAGAACGCATGGACCGGTTTTCCCGGTAATCCGTATTTGGG (site AAGGACGCTCC) | 0.0122
58 | AAGAACGCATGGACCGGTTTTCCCGGTAATCCGTATTTGGG (site AAGTACGCTCC) | 0.0143
59 | AAGAAGCCATGGACCGGTTTTCCCGGTAATCCGTATTTGCA (site AAGAAGCCTTG) | 1.32
60 | AAGAAGCCATGGACCGGTTTTCCCGGTAATCCGTATTTGCA (site AGGAAGACTTG) | 0.00613
61 | AAGACGACATGGACCGGTTTTCCCGGTAATCCGTATTTGGA (site AAGACGACTTC) | 0.804
62 | AAGCACCCATGGACCGGTTTTCCCGGTAATCCGTATTTGGG (site AAGCACACTCC) | 0.0118
63 | AAGCACCCATGGACCGGTTTTCCCGGTAATCCGTATTTGGG (site AAGCACCCTCC) | 0.0505
64 | AAGCACCCATGGACCGGTTTTCCCGGTAATCCGTATTTGGG (site AAGCACGCTCC) | 0.00747
65 | AAGCACCCATGGACCGGTTTTCCCGGTAATCCGTATTTGGG (site AAGCACTCTCC) | 0.371
66 | AAGCAGACATGGACCGGTTTTCCCGGTAATCCGTATTTGGA (site AAGCAGACTTC) | 1.25
67 | AAGCAGTCATGGACCGGTTTTCCCGGTAATCCGTATTTGAC (site AAGCAGTCTGT) | 2.88
68 | AAGCATGCATGGACCGGTTTTCCCGGTAATCCGTATTTGGG (site AAGCAAGCTCC) | 0.0205
69 | AAGCATGCATGGACCGGTTTTCCCGGTAATCCGTATTTGGG (site AAGCACGCTCC) | 0.00447
70 | AAGCATGCATGGACCGGTTTTCCCGGTAATCCGTATTTGGG (site AAGCAGGCTCC) | 0.0127
71 | AAGCATGCATGGACCGGTTTTCCCGGTAATCCGTATTTGGG (site AAGCATGCTCC) | 0.297
72 | AAGCCGCCATGGACCGGTTTTCCCGGTAATCCGTATTTGGC (site AAGCCGCCTGC) | 0
